# Experimental data taken from publication PMC9960821, “Evaluation of Rhenium and Technetium-99m Complexes Bearing Quinazoline Derivatives as Potential EGFR Agents” (Molecules, 2023).
# Read-outs that look alike come from different tables or passages of the source.
# What was measured:
# A431 cells = assay: In vitro growth inhibition (MTT assay) in A431 cells; assay type: cell-based, human; conditions: read-out: Inhibition of cell growth IC50
# Procedure: This assay measures the amount of MTT reduction by mitochondrial dehydrogenase and assumes that cell viability (corresponding to the reductive activity) is proportional to the production of purple formazan that is measured spectrophotometrically.
# (§1) Cell line. The in vitro biological studies were established using the human epidermoid vulvar carcinoma A431 cell line, which overexpresses EGFR. Cells were available in our laboratory from previous studies. Cells were maintained in high glucose D-MEM medium with L-glutamine (PAA Laboratories GmbH, Pasching, Austria) and supplemented with 10% fetal bovine serum (PAA Laboratories GmbH) and penicillin/streptomycin (PAA Laboratories GmbH) 100 UI/100 μg per mL, in 5% CO2 incubator at 37 °C.
# The in vitro cytotoxicity of the synthesized ligands and their rhenium complexes was determined by the MTT method. The A431 cells were seeded in 96-well plates at a density of 4000 cells per 100 μL per well and incubated for 24 h so that they were attached to the wells. After 24 h, the studied derivatives were dissolved in DMSO ([…]) and further diluted in D-MEM in various concentrations. […] The six concentrations of each derivative and control existed quadrupled into the experiment. The derivatives and the cells were incubated for 72 h. After three days, the medium was removed, and the cells were incubated […] in the presence of MTT (1 mg/mL 3-[4,5-dimethylthiazol-2-yl]-2,5-diphenyltetrazolium bromide, Sigma, Saint Louis, MO, USA) in RPMI (PAA Laboratories GmbH, Pasching, Austria) without phenol red for 2 h at 37 °C. The MTT solution was removed, and 2-propanol was added to each well to stop the cleavage of the tetrazolium ring by dehydrogenase enzymes which convert MTT to an insoluble purple formazan in living cells. The plates were then agitated at room temperature for about 15–20 min, and the level of the colored formazan derivative was determined by measuring optical density (OD) on an ELISA reader (540/620 nm). […] Cell proliferation assay was performed three times for each compound.
# EGFR = biological target: T1, EGFR (Homo sapiens, UniProt P00533); assay: Inhibition of EGFR phosphorylation in intact A431 cells (immunoblotting); assay type: cell-based; conditions: 2 h compound then EGF 20 ng/mL 5 min, Western blot
# T1 construct: by immunoblotting in intact A431 cells that overexpress EGFR; endogenous in cells; host or cells: A431 (human epidermoid vulvar carcinoma)
# T1 sequence (P00533 25-1210): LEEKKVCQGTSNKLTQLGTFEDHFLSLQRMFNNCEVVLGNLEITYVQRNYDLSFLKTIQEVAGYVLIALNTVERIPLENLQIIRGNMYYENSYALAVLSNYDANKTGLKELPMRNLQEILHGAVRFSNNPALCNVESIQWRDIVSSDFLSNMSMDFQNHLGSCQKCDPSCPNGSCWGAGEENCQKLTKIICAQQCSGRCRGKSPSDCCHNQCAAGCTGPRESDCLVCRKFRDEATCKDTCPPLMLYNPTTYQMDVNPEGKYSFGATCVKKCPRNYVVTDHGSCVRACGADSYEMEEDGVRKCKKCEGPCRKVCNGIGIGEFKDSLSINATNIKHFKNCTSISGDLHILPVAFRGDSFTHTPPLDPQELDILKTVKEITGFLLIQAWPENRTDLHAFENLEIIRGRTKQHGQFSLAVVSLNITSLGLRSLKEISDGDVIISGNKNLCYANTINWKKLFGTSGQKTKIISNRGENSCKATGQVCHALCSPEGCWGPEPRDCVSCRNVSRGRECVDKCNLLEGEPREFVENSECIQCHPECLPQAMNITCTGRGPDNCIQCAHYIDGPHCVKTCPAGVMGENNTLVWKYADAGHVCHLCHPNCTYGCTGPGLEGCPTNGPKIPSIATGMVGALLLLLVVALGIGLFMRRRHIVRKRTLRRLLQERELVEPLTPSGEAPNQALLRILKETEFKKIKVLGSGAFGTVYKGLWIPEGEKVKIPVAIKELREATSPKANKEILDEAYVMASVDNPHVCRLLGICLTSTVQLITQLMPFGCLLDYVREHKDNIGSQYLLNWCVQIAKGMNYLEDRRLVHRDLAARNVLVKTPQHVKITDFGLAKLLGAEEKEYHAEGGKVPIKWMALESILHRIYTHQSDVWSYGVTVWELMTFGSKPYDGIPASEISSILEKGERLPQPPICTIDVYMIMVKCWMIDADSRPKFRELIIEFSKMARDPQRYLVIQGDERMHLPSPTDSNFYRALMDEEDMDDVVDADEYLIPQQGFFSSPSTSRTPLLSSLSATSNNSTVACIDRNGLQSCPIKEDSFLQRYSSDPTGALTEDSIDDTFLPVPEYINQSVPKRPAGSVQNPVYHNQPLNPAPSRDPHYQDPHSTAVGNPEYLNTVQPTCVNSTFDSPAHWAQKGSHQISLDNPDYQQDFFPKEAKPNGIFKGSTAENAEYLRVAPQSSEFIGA
# Procedure: Complex 5a was evaluated for its potency to inhibit EGFR phosphorylation in various concentrations by immunoblotting in intact A431 cells that overexpress EGFR (Figure 3). In addition, the percentage of EGFR phosphorylation was calculated, and a dose-response curve was performed (Figure 4).
# as §1
# The inhibition of EGFR phosphorylation was studied as described in the literature. A431 cells (5 × 10^5 cells/well) were seeded in 6-well plates and incubated for 24 h. Then, the medium was replaced with fresh medium without fetal bovine serum. […] Protein band quantification was performed using Image-J software, and the percentage of EGFR phosphorylation inhibition was calculated using GraphPad Prism 9.0 software.
# [1] = Cysteine and histidine challenge of 99mTc complexes (RP-HPLC); assay type: physicochemical
# Procedure: (§2) The stability of complexes 5b and 7b was studied in their reaction mixture and after isolation by HPLC for up to 24 h.
# Cysteine and histidine challenge: Histidine (100 µL, 1 × 10^−2 M) or cysteine (100 µL, 1 × 10^−2 M) solution in 0.1 M PBS was mixed with 100 µL (50–120 MBq) of the RP-HPLC isolated ^99mTc complexes in 0.1 M PBS (800 µL). The mixtures were incubated at 37 °C for up to 24 h and analyzed by RP-HPLC at 1, 6, and 24 h intervals.
# [2] = Stability of 99mTc complexes in reaction mixture and after isolation in PBS (RP-HPLC); assay type: physicochemical
# Procedure: as §2
# Stability of ^99mTc complexes in the reaction mixture: Samples of the ^99mTc complexes’ reaction mixture were stored at room temperature for up to 24 h. At 1, 6, and 24 h intervals, 100 μL of each sample was removed and analyzed by RP-HPLC.
# Stability of isolated ^99mTc complexes: Purification and isolation of 5b and 7b complexes were performed by injection of the reaction mixture into RP-HPLC and isolation of the eluted compounds’ peaks, corresponding to the elution time of each complex. Followingly, 0.1 M PBS buffer solution (900 µL) was added to a vial containing 100 µL (50–120 MBq) of the isolated technetium-99m complex. The sample was incubated at 37 °C for up to 24 h and analyzed by RP-HPLC at 1, 6, and 24 h intervals.
# [3] = Lipophilicity, shake-flask distribution coefficient; assay type: physicochemical; conditions: n-octanol/0.1 M phosphate buffer pH 7.4
# Procedure: The pharmacokinetic profile of the studied compounds could be affected by their lipophilicity, expressed as the logarithm of the distribution coefficient (log Do/w). The lipophilicity of complexes 5b and 7b was determined in physiological conditions (n-octanol/0.1 M phosphate buffer pH 7.4). […] The presence of the pyridine ring in the chemical structure of complex […] increases the log D7.4 value, as expected.
# The distribution coefficient of the 5b and 7b complexes was determined with the shake-flask method. The RP-HPLC isolated ^99mTc complexes (20 μL, ~75 kBq) were mixed with 2 mL of 1-octanol and 2 mL of phosphate buffer solution (PBS, 0.1 M, pH 7.4) in a centrifuge tube. The mixture was vortexed at room temperature for 2 min and centrifuged at 5000 rpm for 10 min. The radioactivity of each phase (200 μL) was counted in a gamma counter. The distribution coefficient was calculated by dividing the cpm/mL in the 1-octanol phase by those in the buffer, and the results were expressed as logD7.4. Each experiment was run in triplicate.
# [4] = Biodistribution in healthy Swiss Albino mice after intravenous injection; assay type: in vivo; conditions: i.v.
# Procedure: The pharmacokinetic profile of complexes 5b and 7b was evaluated in Swiss Albino healthy male mice at 5, 60, and 240 min post intravenous injection. Table 4 presents the results of the biodistribution studies expressed as % Injected Dose (ID)/g ± Standard Deviation (±SD). […] The high lipophilicity characterizing both complexes justifies the rapid hepatobiliary excretion, given the decreasing activity in the liver and the increasing amount of radioactivity in the intestines. Complex 5b presented faster clearance and elimination in the intestines at 60 min p.i. 34.05% of the radioactivity excreted, compared to 29.89% at 240 min p.i. of complex 7b. Radioactivity in the urine remained low in general, however, the lower logD7.4 value of complex 7b explains the relatively higher activity in the urines (7.88 ± 0.71%) as it is slightly more hydrophilic than 5b. Moreover, the low uptake in the brain indicates almost no blood-brain barrier penetration, although the complexes have favorable physicochemical characteristics.
# All the biodistribution experiments were carried out in compliance with the national laws and European protocols (2010/63/EU) related to the conduct of animal experimentation. Nine healthy Swiss Albino mice (male, 30 ± 3 g), divided into three groups of three, were injected with the HPLC-purified 5b or 7b complex in saline with 10% EtOH (0.1 mL, ~75 kBq) through the tail vein. For each group, the animals were sacrificed by cardiectomy under slight ether anesthesia 5, 60, and 240 min after the injection. The organs of interest were excised, weighed, and counted in an automatic gamma counter. The bladder and excreted urine were not weighed. The stomach and intestines were not emptied of food contents prior to radioactivity measurements. The percentage of injected dose per organ (%ID/organ) was calculated by comparison of sample radioactivity to standard solutions containing 10% of the injected dose. The calculation for blood and muscle was based on measured activity, sample weight, and body composition data (considering that blood and muscle comprise 7 and 43% of body weight). The percentage of injected dose per gram (%ID/g) was calculated by dividing the %ID/organ by the weight of the organ or tissue.
# [5] = Homo sapiens, A-431, A431 cancer cell line, MTT, 72 h, mean ± SD of three experiments
# [6] = A431 cancer cell line, MTT, 72 h, mean ± SD of three experiments
structure (smiles),measurement,setting,value
"Nc1ccc2ncnc(Nc3cccc(Br)c3)c2c1 [Compound 1, 6-amino-4-[(3-bromophenyl)amino] quinazoline, reference compound]",IC50,"A431 cells; Homo sapiens, A-431, 72 h",2.3 ± 0.3 µM
"CCOC(=O)CN(CCCCCC(=O)Nc1ccc2ncnc(Nc3cccc(Br)c3)c2c1)Cc1ccccn1 [Compound 4, 6-(pyridine-2-methyl N, N, acetic ethyl ester-hexanoyl)-4-[(3-bromophenyl)amino]-quinazoline]",IC50,A431 cells; [5],25.6 ± 3.87 µM
"O=C([O-])CN(CCCCCC(=O)Nc1ccc2ncnc(Nc3cccc(Br)c3)c2c1)Cc1ccccn1.[C-]#[O+].[C-]#[O+].[C-]#[O+].[Re+] [Compound 5a, fac-[Re(NNO)(CO)3]]",IC50,A431 cells; [6],8.85 ± 2.62 µM
same,IC50,EGFR,0.0261 µM
"NC(CSCCCCCC(=O)Nc1ccc2ncnc(Nc3cccc(Br)c3)c2c1)C(=O)O (stereo not shown) [Compound 6, 6-(cysteine-N-hexanoyl)-4-[(3-bromophenyl)amino]-quinazoline]",IC50,A431 cells; [5],4.12 ± 0.92 µM
"NC(CSCCCCCC(=O)Nc1ccc2ncnc(Nc3cccc(Br)c3)c2c1)C(=O)[O-].[C-]#[O+].[C-]#[O+].[C-]#[O+].[Re+] (stereo not shown) [Compound 7a, fac-[Re(SNO)(CO)3]]",IC50,A431 cells; [6],29.6 ± 3.63 µM
NC(CSCCCCCC(=O)Nc1ccc2ncnc(Nc3cccc(Br)c3)c2c1)C(=O)[O-].[99Tc+].[C-]#[O+].[C-]#[O+].[C-]#[O+] (stereo not shown) [Compound 7b],Stability after incubation with excess of histidine and cysteine,"[1]; 24 h, molar ratio 1/1000, HPLC",> 95%
same,%RCP in Cysteine for 24 h,"[1]; excess cysteine, 37 °C",95 ± 1%
same,%RCP in Histidine for 24 h,"[1]; excess histidine, 37 °C",95 ± 2%
same,%RCP in PBS for 24 h,"[2]; 0.1 M PBS, 37 °C, 24 h",99 ± 1%
same,Stability in reaction mixture and after isolation by HPLC,"[2]; up to 24 h, room temperature or 37 °C",No decomposition
same,log D7.4,[3],2.87 ± 0.32
same,In vivo stability (low spleen and stomach radioactivity; no oxidation to pertechnetate/TcO2),[4],stable in vivo
same,Blood %Injected Dose/g,[4]; 5 min,1.06 ± 0.29 %Injected Dose/g
same,Brain %Injected Dose/g,[4]; 5 min,0.06 ± 0.02 %Injected Dose/g
same,Heart %Injected Dose/g,[4]; 5 min,0.97 ± 0.29 %Injected Dose/g
same,Intestines %Injected Dose/g,[4]; 5 min,10.62 ± 1.17 %Injected Dose/g
same,Kidneys %Injected Dose/g,[4]; 5 min,13.04 ± 2.34 %Injected Dose/g
same,Liver %Injected Dose/g,[4]; 5 min,23.33 ± 3.63 %Injected Dose/g
same,Lungs %Injected Dose/g,[4]; 5 min,1.19 ± 0.22 %Injected Dose/g
same,Muscle %Injected Dose/g,[4]; 5 min,0.29 ± 0.11 %Injected Dose/g
same,Pancreas %Injected Dose/g,[4]; 5 min,1.10 ± 0.11 %Injected Dose/g
same,Spleen %Injected Dose/g,[4]; 5 min,0.92 ± 0.32 %Injected Dose/g
same,Stomach %Injected Dose/g,[4]; 5 min,1.04 ± 0.10 %Injected Dose/g
same,Urine % ID,[4]; 5 min,0.08 ± 0.06 % ID
same,Blood %Injected Dose/g,[4]; 60 min,0.30 ± 0.09 %Injected Dose/g
same,Brain %Injected Dose/g,[4]; 60 min,0.02 ± 0.01 %Injected Dose/g
same,Heart %Injected Dose/g,[4]; 60 min,0.18 ± 0.03 %Injected Dose/g
same,Intestines %Injected Dose/g,[4]; 60 min,26.81 ± 1.61 %Injected Dose/g
same,Kidneys %Injected Dose/g,[4]; 60 min,1.94 ± 0.28 %Injected Dose/g
same,Liver %Injected Dose/g,[4]; 60 min,4.88 ± 0.47 %Injected Dose/g
same,Lungs %Injected Dose/g,[4]; 60 min,0.26 ± 0.04 %Injected Dose/g
same,Muscle %Injected Dose/g,[4]; 60 min,0.13 ± 0.12 %Injected Dose/g
same,Pancreas %Injected Dose/g,[4]; 60 min,0.24 ± 0.05 %Injected Dose/g
same,Spleen %Injected Dose/g,[4]; 60 min,0.11 ± 0.02 %Injected Dose/g
same,Stomach %Injected Dose/g,[4]; 60 min,0.97 ± 0.22 %Injected Dose/g
same,Urine % ID,[4]; 60 min,5.83 ± 0.02 % ID
same,Blood %Injected Dose/g,[4]; 240 min,0.18 ± 0.04 %Injected Dose/g
same,Brain %Injected Dose/g,[4]; 240 min,0.07 ± 0.06 %Injected Dose/g
same,Heart %Injected Dose/g,[4]; 240 min,0.12 ± 0.00 %Injected Dose/g
same,Intestines %Injected Dose/g,[4]; 240 min,29.89 ± 2.41 %Injected Dose/g
same,Kidneys %Injected Dose/g,[4]; 240 min,1.12 ± 0.03 %Injected Dose/g
same,Liver %Injected Dose/g,[4]; 240 min,4.46 ± 0.16 %Injected Dose/g
same,Lungs %Injected Dose/g,[4]; 240 min,0.25 ± 0.08 %Injected Dose/g
same,Muscle %Injected Dose/g,[4]; 240 min,0.03 ± 0.00 %Injected Dose/g
same,Pancreas %Injected Dose/g,[4]; 240 min,0.12 ± 0.02 %Injected Dose/g
same,Spleen %Injected Dose/g,[4]; 240 min,0.09 ± 0.02 %Injected Dose/g
same,Stomach %Injected Dose/g,[4]; 240 min,0.96 ± 0.06 %Injected Dose/g
same,Urine % ID,[4]; 240 min,7.88 ± 0.71 % ID
